Measurements from patent US10010529B2, “Extended release pharmaceutical formulations with controlled impurity levels” (Ezra Pharma LLC, priority 2016, dated 2018).

Columns and labels:
[1] = Compatibility study for valsartan related compound A (Impurity A), 2 weeks 60° C. closed glass vial; format: physicochemical
Protocol: Valsartan and valsartan solubilized in molten solubilizers as depicted in tables I and II respectively were subjected to compatibility studies at the following condition: • 2 weeks 60° C. closed glass vial Solubilized valsartan used for the study was prepared by melting the solubiliser/s (Kolliphor P 407, Kolliphor TPGS and combination thereof) in a beaker at water bath temperature 65° C. The drug was mixed with the molten solubiliser/s uniformly at water bath temperature 65° C. and the cooled mass was used in the studies. Levels of Impurity A were evaluated at the tabulated conditions as mentioned in Table III.

[2] = in vivo; cited from earlier work

CCCCC(=O)N(Cc1ccc(-c2ccccc2-c2nnn[nH]2)cc1)[C@H](C(=O)O)C(C)C [Valsartan API, (S)—N-(1-oxopentyl)-N-[[2′-(1H-tetrazol-5-yl) [1,1′-biphenyl]-4-yl]methyl]-L-valine]
Impurity A level, 2 Weeks 60° C. Closed glass Vial ([1]; 2 weeks 60° C., closed glass vial): 0.05
generation of Valsartan R-isomer impurity (Impurity A), in words ([1]; conditions of the compatibility study): not generated
Impurity A level, Initial ([1]; initial): 0.03
absolute bioavailability [2]: about 25%
